Laboratory results reported in patent US20250250545A1, “MSCS AND EXTRACELLULAR VESICLES” (EXOSTEM BIOTEC LTD., priority 2021, published 2025).

Test system: AD-MSCs
Assay: MyoD reporter (luciferase) in AD-MSCs, myogenic differentiation
Assay type: cell-based, human
Conditions: 10^8 EVs per ml, with or without IGF, HGF, PDGF, versus untreated control
Procedure: The effects of muscle cell derived extracellular vesicles (EVs) on the myogenic differentiation of MSCs was analyzed using a myoD reporter tagged to luciferase. Human satellite cells, myotubes and fibroblasts were grown in culture and EVs were isolated from each. MSCs were isolated from adipose tissue (AD-MSCs) and were transfected with the MyoD reporter. The cells grown in culture were treated with EVs (10^8/ml) for 5 days and the luciferase activity was determined. […] Thus, the vesicles from these two cell types are effective at inducing myogenic differentiation.
Next, EVs were compared to the use of growth factors and the effect of combining EVs with growth factors on myogenic differentiation was tested. The same MyoD reporter was employed and MSCs were cultured with 10^8 EVs (from satellite cells or fibroblasts) per ml of culture media. A no EV control was also performed. The EVs were also added in the presence of three different growth factors, IGF, HGF and PDGF or in the combined presence of all three growth factors. […]
Finally, human primary myotubes were growth in culture and EVs and membrane-bound vesicles (MBVs) were harvested every 3 days. […] The vesicles were added to the culture of MSCs (adipose derived, AD; or chorionic placenta derived, CH) at a concentration of 10^8 per ml of culture and myogenic differentiation was again monitored with a MyoD reporter. […]

| Substance | MyoD reporter activity |
| --- | --- |
| HGF: hepatocyte growth factor | less than a doubling of reporter activity |
| PDGF | less than a doubling of reporter activity |
